Values after ≈ are worked out from the molar mass of the structure shown.
Assays:
[1] = tested on: Salmonella typhi; assay: Antibacterial activity against Salmonella typhi ATCC 25021 after 24 hrs by two fold serial dilution method; assay type: functional, Salmonella enterica subsp. enterica serovar Typhi; settings: Salmonella enterica, ATCC 25021, 24 h
[2] = tested on: Staphylococcus aureus; assay: Antibacterial activity against Staphylococcus aureus ATCC 25930 after 24 hrs by two fold serial dilution method; assay type: functional; settings: ATCC 25930, 24 h
[3] = tested on: Bacillus subtilis; assay: Antibacterial activity against Bacillus subtilis ATCC 530 after 24 hrs by two fold serial dilution method; assay type: functional; settings: ATCC 530, 24 h
[4] = tested on: Fusarium oxysporum; assay: Antifungal activity against Fusarium oxysporum ATCC 48112 after 72 to 96 hrs by two fold serial dilution method; assay type: functional
[5] = Ratio of MIC for Bacillus subtilis ATCC 530 to MIC for Salmonella typhi ATCC 25021; assay type: functional
[6] = Ratio of MIC for Pseudomonas ATCC 27853 to MIC for Salmonella typhi ATCC 25021; assay type: functional
[7] = tested on: Pseudomonas; assay: Antibacterial activity against Pseudomonas ATCC 27853 after 24 hrs by two fold serial dilution method; assay type: functional; settings: ATCC 27853, 24 h
[8] = tested on: Penicillium chrysogenum; assay: Antifungal activity against Penicillium chrysogenum ATCC 28089 after 72 to 96 hrs by two fold serial dilution method; assay type: functional
[9] = tested on: Aspergillus niger; assay: Antifungal activity against Aspergillus niger ATCC 635 after 72 to 96 hrs by two fold serial dilution method; assay type: functional
[10] = tested on: Rhizopus; assay: Antifungal activity against Rhizopus sp. ATCC 2842 after 72 to 96 hrs by two fold serial dilution method; assay type: functional
[11] = tested on: Escherichia coli; assay: Antibacterial activity against Escherichia coli ATCC 26032 after 24 hrs by two fold serial dilution method; assay type: functional; settings: ATCC 26032, 24 h
[12] = tested on: Aspergillus flavus; assay: Antifungal activity against Aspergillus flavus ATCC 525 after 72 to 96 hrs by two fold serial dilution method; assay type: functional

`C=CCN1[C@H](c2ccc(C)cc2)CC(=O)[C@@H](C)[C@@H]1c1ccc(C)cc1` (relative stereo) gave an MIC [1] of 12.5 mg/L (≈ 37.5 µM), an MIC [2] of 50 mg/L (≈ 150 µM) and an MIC [3] of 100 mg/L (≈ 300 µM). The MIC [4] was 25 mg/L (≈ 75 µM), the Ratio [5] was 3 and the Ratio [6] was 2. It also gave an MIC [7] of 50 mg/L (≈ 150 µM), an MIC [8] of 25 mg/L (≈ 75 µM) and an MIC [9] of 50 mg/L (≈ 150 µM). The MIC [10] was 6.25 mg/L (≈ 18.7 µM), the MIC [11] was 25 mg/L (≈ 75 µM) and the MIC [12] was 50 mg/L (≈ 150 µM).

— ChEMBL document CHEMBL2157909, “Design, synthesis, spectral and biological evaluation of novel 1-allyl substituted 2,6-diphenylpiperidin-4-ones and its derivatives of oximes/oxime ethers” (2012)
